Experimental findings from patent US12692221B2 (priority 2024, dated 2026) are described below.

Data set [1] deals with COX1(h) (Homo sapiens, UniProt P23219). Description: Enzyme assay COX1(h), arachidonic acid + ADHP, fluorimetry. In kind it is biochemical. The procedure:
(§1) Methods—Enzyme and Uptake Assays: In vitro enzyme and uptake assays were conducted by Eurofins Discovery using human recombinant enzymes expressed in various mammalian and insect cell lines. Enzymatic activity was measured using appropriate substrates or tracers under conditions optimized for each target, as detailed in Table 7. Reactions were incubated at room temperature for a defined duration and terminated according to established protocols. The measured components (either enzymatic products or remaining substrate) were quantified using fluorimetry, photometry, scintillation counting, or LANCE technology, depending on the assay. Assay-specific parameters, including substrate identity, cell line source, incubation time, and detection method, are provided in Table 7.
(§2) All measurements were performed in technical replicates to ensure reproducibility and data quality.
(§3) Results were expressed both as a percentage of control-specific activity and as percent inhibition of control-specific activity. Percent activity was calculated as (measured specific activity/control specific activity)×100, and percent inhibition as 100−[(measured specific activity/control specific activity)×100], based on values obtained in the presence of test compounds. IC50 and EC50 values, along with Hill coefficients (nH), were determined by nonlinear regression analysis of inhibition or concentration-response curves generated from mean replicate values. Hill curve fitting was performed as previously described using software developed at Cerep and validated against SigmaPlot® 4.0 for Windows® (© 1997 by SPSS Inc.).

The target in data set [2] is T1, norepinephrine transporter(h) (Homo sapiens, UniProt P23975).
T1 construct: expressed in transfected cells; host or cells: CHO cells
T1 sequence (P23975 whole entry): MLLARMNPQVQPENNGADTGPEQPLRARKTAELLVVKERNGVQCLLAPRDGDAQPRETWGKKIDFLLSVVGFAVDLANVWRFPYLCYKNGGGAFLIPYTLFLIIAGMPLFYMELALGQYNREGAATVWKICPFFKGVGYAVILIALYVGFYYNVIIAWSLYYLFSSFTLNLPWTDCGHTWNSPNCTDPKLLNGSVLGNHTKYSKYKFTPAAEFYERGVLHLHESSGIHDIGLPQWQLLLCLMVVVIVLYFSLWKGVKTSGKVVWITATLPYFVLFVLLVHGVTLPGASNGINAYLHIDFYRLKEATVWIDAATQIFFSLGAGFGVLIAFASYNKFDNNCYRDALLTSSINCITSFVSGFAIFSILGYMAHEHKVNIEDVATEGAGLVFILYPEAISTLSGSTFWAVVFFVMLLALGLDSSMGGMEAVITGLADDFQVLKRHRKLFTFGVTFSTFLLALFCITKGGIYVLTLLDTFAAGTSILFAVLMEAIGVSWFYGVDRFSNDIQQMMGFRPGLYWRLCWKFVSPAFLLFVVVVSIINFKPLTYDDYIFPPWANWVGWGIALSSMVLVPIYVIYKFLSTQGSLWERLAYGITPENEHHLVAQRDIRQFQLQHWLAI
The data set is described as follows: Radioligand binding NE transporter (h) (antagonist radioligand), [^3H]nisoxetine, CHO cells. The procedure: (§4) Methods—Binding Assays: In vitro binding assays were performed using human recombinant receptors expressed in mammalian cell lines. Receptors were expressed in either HEK-293 or CHO cells depending on the target, and assay conditions (radioligand, concentration, nonspecific competitor, temperature, and incubation time) were optimized for each receptor. All assays were conducted in triplicate, and specific binding was quantified by scintillation counting as the detection method for each listed assay.
(§5) Specific binding was expressed as a percentage of control-specific binding, and percent inhibition was calculated using the formula in Ex. 8 above. Half-maximal inhibitory concentrations (IC50) were determined by non-linear regression analysis of the inhibition curves using the Hill equation (see Ex. 8). Inhibition constants (Ki) were calculated using the Cheng-Prusoff equation (see Ex. 8). KD values used in these calculations had been previously established for each receptor under the assay conditions (see Table 6). Data analysis was performed using software developed at Cerep and validated against SigmaPlot 4.0 for Windows.

Data set [3] has as its target T2, CB2 (h) (Homo sapiens, UniProt P34972).
T2 construct: expressed in transfected cells; host or cells: CHO cells
The data set is described as follows: Radioligand binding CB2 (h) (agonist radioligand), [^3H]WIN 55212-2, CHO cells. The protocol: as §4, §5

Data set [4] has as its target T3, N neuronal α4β2 (h) (Homo sapiens, UniProt P17787+P43681).
T3 construct: expressed in transfected cells; host or cells: SH-SY5Y cells
The data set is described as follows: Radioligand binding N neuronal α4β2 (h) (agonist radioligand), [^3H]cytisine, SH-SY5Y cells. As to conditions: N neuronal alpha4beta2 (h) (agonist radioligand).

Data set [5] deals with BZD (central). The data set is described as follows: Radioligand binding BZD (central) (agonist radioligand), [^3H]flunitrazepam, rat cerebral cortex.
The target in data set [6] is T4, μ (MOP) (h) (Homo sapiens, UniProt P35372).
T4 construct: expressed in transfected cells; host or cells: HEK-293 cells
Description: Radioligand binding μ (MOP) (h) (agonist radioligand), [^3H]DAMGO, HEK-293 cells. The procedure:
as §4, §5

The target in data set [7] is T5, PDE3A(h) (Homo sapiens, UniProt Q14432).
T5 construct: host or cells: Sf21 cells
T5 sequence (Q14432 whole entry): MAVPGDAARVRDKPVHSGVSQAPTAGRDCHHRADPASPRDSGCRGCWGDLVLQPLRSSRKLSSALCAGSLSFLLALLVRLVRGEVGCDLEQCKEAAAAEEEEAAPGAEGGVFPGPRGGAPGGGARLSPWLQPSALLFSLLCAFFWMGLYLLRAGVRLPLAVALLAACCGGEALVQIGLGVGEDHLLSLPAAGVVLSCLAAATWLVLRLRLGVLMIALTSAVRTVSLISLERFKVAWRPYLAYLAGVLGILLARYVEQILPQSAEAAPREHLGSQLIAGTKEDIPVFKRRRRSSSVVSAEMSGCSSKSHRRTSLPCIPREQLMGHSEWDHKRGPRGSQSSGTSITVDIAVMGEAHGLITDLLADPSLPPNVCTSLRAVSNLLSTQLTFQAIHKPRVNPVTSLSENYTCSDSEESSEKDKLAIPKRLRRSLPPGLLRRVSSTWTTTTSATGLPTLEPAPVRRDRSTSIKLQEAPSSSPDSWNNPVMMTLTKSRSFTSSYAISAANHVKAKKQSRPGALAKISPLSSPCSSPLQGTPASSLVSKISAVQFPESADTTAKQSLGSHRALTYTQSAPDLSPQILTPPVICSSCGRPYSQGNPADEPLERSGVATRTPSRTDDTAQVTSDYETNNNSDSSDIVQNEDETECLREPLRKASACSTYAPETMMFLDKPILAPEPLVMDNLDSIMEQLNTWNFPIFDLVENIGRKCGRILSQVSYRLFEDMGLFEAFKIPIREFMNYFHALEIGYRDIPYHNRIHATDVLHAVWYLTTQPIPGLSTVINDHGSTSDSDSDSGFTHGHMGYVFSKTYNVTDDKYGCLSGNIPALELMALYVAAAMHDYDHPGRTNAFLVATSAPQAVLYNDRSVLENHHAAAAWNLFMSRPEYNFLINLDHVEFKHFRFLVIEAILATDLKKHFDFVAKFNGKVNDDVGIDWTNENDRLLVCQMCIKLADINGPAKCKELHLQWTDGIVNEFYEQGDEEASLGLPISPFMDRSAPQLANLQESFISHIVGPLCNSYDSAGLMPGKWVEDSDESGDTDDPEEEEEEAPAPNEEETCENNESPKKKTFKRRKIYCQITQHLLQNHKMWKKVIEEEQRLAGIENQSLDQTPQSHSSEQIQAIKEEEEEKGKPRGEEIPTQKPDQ
Description: Enzyme assay PDE3A(h), [3H]cAMP, scintillation counting. Format: biochemical. The protocol:
as §1, §2, §3

Data set [8] deals with T6, PDE4D2(h) (Homo sapiens, UniProt Q08499).
T6 construct: host or cells: Sf9 cells
T6 sequence (Q08499 303-809 limits assumed): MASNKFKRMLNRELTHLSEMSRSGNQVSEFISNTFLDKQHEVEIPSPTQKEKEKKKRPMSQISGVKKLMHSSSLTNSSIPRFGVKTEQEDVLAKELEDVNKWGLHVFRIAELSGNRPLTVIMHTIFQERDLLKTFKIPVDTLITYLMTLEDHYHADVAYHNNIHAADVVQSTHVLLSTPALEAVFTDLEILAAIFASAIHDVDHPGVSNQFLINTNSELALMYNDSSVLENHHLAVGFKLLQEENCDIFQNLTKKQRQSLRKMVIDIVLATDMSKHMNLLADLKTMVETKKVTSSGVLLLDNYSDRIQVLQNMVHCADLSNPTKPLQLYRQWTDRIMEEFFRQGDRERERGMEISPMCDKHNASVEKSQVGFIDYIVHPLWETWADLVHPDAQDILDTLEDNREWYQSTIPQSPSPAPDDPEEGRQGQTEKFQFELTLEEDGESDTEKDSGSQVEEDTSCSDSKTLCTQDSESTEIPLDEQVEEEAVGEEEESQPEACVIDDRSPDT
Description: Enzyme assay PDE4D2(h), [3H]cAMP, scintillation counting. In kind it is biochemical. The procedure:
as §1, §2, §3

The target in data set [9] is T7, M2 (h) (Homo sapiens, UniProt P08172).
T7 construct: expressed in transfected cells; host or cells: CHO cells
T7 sequence (P08172 1-466): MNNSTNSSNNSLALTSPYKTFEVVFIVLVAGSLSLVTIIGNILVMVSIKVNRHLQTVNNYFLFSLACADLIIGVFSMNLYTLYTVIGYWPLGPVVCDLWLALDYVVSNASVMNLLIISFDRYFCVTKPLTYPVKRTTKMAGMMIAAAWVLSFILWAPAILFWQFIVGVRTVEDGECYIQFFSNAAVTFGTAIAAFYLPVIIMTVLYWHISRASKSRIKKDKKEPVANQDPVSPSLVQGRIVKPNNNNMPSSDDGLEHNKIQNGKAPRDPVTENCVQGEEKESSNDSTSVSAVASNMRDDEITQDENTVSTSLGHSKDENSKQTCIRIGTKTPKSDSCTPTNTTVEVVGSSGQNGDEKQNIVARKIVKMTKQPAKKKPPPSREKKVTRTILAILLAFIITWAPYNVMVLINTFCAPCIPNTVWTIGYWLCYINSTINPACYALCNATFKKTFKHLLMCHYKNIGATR
The data set is described as follows: Radioligand binding M2 (h) (antagonist radioligand), [^3H]AF-DX 384, CHO cells. The procedure: as §4, §5

For data set [10], the target named is T8, alpha1D (h) (Homo sapiens, UniProt P25100).
T8 construct: expressed in transfected cells; host or cells: CHO cells
T8 sequence (P25100 1-572): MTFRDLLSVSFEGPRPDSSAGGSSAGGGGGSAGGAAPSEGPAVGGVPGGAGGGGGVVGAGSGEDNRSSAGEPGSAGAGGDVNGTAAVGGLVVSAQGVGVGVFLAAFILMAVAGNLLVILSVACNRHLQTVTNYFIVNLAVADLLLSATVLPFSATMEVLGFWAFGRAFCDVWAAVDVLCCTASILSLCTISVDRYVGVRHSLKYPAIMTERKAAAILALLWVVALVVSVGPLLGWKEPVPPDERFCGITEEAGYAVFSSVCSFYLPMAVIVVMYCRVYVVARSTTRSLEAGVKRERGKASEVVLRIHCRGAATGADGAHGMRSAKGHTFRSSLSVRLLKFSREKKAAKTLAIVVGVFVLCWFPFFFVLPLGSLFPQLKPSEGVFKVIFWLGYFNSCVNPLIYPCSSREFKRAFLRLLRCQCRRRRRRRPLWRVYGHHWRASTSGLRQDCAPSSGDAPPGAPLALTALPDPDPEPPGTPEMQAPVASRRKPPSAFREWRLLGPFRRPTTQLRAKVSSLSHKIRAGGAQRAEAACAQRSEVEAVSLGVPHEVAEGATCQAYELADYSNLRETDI
Description: Radioligand binding alpha1D (h) (antagonist radioligand), [^3H]prazosin, CHO cells. The protocol: as §4, §5

For data set [11], the target named is T9, Potassium Channel hERG (human) (Homo sapiens, UniProt Q12809).
T9 construct: expressed in transfected cells; host or cells: HEK-293 cells
T9 sequence (Q12809 whole entry): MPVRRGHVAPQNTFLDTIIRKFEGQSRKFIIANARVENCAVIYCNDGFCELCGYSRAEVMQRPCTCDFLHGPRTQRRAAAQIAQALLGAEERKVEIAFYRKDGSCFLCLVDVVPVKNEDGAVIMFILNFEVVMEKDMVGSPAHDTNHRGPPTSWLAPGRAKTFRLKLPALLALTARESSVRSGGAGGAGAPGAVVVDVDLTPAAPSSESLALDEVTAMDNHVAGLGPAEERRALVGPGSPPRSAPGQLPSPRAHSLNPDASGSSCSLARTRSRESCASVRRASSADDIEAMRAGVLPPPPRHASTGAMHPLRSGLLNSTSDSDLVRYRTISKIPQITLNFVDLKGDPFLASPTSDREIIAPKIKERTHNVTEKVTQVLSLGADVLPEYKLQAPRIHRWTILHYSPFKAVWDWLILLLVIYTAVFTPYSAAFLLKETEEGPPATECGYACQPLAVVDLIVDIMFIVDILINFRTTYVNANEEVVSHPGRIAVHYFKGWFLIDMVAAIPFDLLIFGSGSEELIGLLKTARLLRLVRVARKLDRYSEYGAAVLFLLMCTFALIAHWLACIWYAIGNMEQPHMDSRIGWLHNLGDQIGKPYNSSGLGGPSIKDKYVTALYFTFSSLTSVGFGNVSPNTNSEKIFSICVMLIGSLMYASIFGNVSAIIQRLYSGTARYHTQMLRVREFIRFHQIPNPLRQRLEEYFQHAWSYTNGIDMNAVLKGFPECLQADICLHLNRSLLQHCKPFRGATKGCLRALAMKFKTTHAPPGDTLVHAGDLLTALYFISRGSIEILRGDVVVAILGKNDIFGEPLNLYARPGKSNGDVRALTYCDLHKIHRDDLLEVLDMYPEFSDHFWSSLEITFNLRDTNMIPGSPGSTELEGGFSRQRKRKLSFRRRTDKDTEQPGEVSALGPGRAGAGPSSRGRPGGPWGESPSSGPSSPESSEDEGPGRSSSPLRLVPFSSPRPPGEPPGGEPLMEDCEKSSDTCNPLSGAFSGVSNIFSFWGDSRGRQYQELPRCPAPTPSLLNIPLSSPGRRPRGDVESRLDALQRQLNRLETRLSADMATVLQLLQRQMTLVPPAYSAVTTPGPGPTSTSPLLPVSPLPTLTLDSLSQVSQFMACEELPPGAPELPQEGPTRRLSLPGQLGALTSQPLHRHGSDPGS
The data set is described as follows: Radioligand binding Potassium Channel hERG (human), [^3H]Dofetilide, HEK-293 cells. Conditions: Potassium Channel hERG(h) ([3H] Dofetilide). The protocol:
as §4, §5
On the technique in general: The hERG channel carries a current that helps repolarise heart muscle cells.

Data set [12] concerns male C57BL/6J mice. The data set is described as follows: Motor activity / distance traveled measured in parallel with HTR. As to conditions: i.p.; for motor activity, in words: magnetometer activity. Format: in vivo, mouse.

T2 sequence (P34972 whole entry): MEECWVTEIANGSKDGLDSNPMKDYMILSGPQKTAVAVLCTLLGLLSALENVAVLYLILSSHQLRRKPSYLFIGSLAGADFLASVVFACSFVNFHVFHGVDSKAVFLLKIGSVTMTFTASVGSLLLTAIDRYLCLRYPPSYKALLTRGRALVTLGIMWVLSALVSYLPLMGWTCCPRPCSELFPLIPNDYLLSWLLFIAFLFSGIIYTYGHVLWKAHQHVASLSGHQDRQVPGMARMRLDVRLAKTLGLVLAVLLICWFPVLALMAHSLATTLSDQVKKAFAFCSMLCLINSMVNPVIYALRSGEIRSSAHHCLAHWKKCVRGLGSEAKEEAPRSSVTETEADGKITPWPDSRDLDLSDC
T3 sequence (P43681 29-627 limits assumed): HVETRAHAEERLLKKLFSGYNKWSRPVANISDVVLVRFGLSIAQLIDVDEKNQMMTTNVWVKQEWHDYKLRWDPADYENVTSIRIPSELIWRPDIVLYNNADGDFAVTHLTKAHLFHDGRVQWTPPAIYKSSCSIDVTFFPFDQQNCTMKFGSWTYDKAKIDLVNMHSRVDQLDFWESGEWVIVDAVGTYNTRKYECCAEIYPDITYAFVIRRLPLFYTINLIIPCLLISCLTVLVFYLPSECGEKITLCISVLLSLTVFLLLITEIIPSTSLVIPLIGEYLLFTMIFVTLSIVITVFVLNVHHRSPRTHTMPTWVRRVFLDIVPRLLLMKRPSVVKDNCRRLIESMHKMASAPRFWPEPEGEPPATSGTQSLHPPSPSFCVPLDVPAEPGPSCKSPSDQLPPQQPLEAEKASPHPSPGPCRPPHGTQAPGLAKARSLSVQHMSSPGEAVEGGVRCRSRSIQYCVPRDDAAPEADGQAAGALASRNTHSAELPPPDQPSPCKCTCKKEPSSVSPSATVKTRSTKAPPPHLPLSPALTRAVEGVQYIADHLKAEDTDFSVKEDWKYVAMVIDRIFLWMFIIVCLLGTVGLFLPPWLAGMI
T3 sequence (P17787 26-502): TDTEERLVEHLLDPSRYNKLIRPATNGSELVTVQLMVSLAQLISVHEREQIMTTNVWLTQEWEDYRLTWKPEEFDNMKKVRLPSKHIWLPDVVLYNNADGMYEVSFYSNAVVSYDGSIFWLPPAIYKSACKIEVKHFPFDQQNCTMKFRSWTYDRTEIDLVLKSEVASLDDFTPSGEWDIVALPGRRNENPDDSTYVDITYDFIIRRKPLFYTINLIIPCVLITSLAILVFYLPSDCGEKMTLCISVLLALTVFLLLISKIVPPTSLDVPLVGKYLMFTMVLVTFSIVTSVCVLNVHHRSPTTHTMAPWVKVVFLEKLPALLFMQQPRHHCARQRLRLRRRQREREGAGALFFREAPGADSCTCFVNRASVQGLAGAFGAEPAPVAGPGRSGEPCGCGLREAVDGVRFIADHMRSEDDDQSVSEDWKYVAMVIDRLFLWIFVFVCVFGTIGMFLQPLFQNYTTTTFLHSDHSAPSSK

For `COCc1cc(CCN)c(O)cc1CC(C)C` [2CiBu-2OH-5MM, 2-(2-aminoethyl)-5-isobutyl-4-(methoxymethyl)phenol], the “Mean Percent Inhibition of Control Specific Binding” value (“Mean Percent Inhibition” for short) is on record as −37.4% in [1]; 17.4% in data set [2]; −6.0% in data set [3]; −10.0% in data set [4]; 8.3% in data set [5]; 24.4% in data set [6]. Also, the “Mean Percent Inhibition” value in data set [7] was found to be 35.1%; in [8], 67.4%; in data set [9], 14.9%; in data set [10], 11.8%; in data set [11] it was 9.7%.
For the compound `COCCc1cc(CCN)c(OC)cc1Br` [Compound 2CB-5ME, reference compound], the “Mean Percent Inhibition” value in [1] is reported as −4.7%; in data set [2], 11.4%; in [3], −22.8%; in data set [4], 7.4%; in data set [5] it was −3.0%; in data set [6], 28.6%. The “Mean Percent Inhibition” value in [7] is given as −4.6%; in [8], −5.7%; in [9], 21.5%; in data set [10] it was 10.0%; in data set [11], 8.5%. Further, the “motor activity, in words” value in [12] is “motor suppression reaching statistical significance at 30 mpk”.
Turning to `COCc1cc(CCN)c(OC)cc1CC(C)C` [Compound 2CiBu-5MM, 2-[4-isobutyl-2-methoxy-5-(methoxymethyl)phenyl]ethanamine], the “Mean Percent Inhibition” value in data set [1] was 13.8%; in [2] it was −5.4%; in [3], 17.8%; in data set [4], −2.6%; in data set [5], 6.6%; in data set [6], 31.5%. The “Mean Percent Inhibition” value in data set [7] stood at 8.2%; in data set [8] it was 3.0%; in data set [9] it was 16.0%; in data set [10] it was 0.5%; in [11], 4.4%. Further, the “motor activity ID50” value in data set [12] is > 3 mpk. In data set [12], the “motor activity, in words” value was “statistically significant suppression of motor activity at the two highest doses tested of 10 and 30 mpk”.
Consider `COCc1cc(CCN)c(OC)cc1Br` [Compound 2CB-5MM, 2-(4-bromo-2-methoxy-5-(methoxymethyl)phenyl)ethan-1-amine], for which the “Mean Percent Inhibition” value in data set [1] was 0.3%; in data set [2], 0.2%; in [3], −14.9%; in data set [4], −0.1%; in [5], −1.8%; in [6], 31.1%. The “Mean Percent Inhibition” value in data set [7] is on record as 14.5%; in data set [8], −0.5%; in data set [9], 10.0%; in [10] it was 9.5%; in data set [11], 13.9%. Besides, the “Distance traveled (locomotor activity), in words” value in [12] (0.03-30 mpk, over 30 minutes) is listed as “remained consistent across doses”.
